Test [1] deals with T1, Alpha-1A adrenergic receptor (Homo sapiens, UniProt P35348).
T1 sequence (P35348 whole entry): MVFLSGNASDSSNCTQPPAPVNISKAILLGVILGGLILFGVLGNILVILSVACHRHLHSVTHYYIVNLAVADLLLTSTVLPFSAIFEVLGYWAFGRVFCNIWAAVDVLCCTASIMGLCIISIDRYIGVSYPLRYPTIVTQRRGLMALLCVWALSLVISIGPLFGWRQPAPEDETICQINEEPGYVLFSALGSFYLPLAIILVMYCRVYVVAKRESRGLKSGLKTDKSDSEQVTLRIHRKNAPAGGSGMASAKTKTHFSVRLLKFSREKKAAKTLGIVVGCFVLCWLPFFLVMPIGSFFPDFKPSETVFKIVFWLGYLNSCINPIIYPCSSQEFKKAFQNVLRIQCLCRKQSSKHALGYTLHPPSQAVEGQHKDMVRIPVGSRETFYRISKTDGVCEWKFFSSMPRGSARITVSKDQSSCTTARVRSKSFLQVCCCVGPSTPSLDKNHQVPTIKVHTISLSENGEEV
Type of test: functional, cell-based.

For another test, the target named is T2, Estrogen receptor (Homo sapiens, UniProt P03372).
T2 sequence (P03372 whole entry): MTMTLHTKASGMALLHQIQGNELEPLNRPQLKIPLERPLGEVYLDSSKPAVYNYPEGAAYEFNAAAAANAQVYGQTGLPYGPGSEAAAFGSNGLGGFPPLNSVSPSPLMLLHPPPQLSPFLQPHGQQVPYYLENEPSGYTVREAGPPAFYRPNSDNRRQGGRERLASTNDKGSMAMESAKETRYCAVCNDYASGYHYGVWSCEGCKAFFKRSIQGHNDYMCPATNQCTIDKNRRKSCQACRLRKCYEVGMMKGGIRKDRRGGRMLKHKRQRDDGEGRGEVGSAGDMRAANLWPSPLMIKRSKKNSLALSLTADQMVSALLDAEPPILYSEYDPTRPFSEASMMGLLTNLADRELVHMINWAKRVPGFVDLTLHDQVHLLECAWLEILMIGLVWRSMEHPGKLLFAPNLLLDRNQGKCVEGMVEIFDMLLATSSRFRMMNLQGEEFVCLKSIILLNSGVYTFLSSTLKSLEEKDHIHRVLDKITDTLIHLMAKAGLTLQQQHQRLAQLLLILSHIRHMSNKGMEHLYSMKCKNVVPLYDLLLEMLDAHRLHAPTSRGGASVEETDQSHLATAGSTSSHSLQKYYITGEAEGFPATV

The target of test [2] is T3, Amine oxidase [flavin-containing] A (Homo sapiens, UniProt P21397).
T3 sequence (P21397 whole entry): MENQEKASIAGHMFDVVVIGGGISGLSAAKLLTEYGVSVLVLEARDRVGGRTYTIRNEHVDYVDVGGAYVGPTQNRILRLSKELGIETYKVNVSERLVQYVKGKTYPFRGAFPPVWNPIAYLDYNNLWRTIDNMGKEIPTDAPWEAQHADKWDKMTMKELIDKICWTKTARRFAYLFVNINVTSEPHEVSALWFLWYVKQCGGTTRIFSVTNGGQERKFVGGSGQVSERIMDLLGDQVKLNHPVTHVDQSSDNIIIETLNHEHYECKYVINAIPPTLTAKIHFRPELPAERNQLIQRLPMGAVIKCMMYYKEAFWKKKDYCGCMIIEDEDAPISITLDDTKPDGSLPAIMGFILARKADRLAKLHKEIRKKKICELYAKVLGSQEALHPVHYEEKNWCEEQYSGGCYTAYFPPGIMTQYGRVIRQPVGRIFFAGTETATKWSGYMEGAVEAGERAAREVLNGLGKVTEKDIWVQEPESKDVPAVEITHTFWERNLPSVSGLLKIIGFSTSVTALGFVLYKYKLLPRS
Type of test: functional.

Test [3] has as its target 3',5'-cyclic-AMP phosphodiesterase 4A (Homo sapiens, UniProt P27815). Format: functional.
The next test concerns the target T4, Progesterone receptor (Homo sapiens, UniProt P06401).
T4 sequence (P06401 whole entry): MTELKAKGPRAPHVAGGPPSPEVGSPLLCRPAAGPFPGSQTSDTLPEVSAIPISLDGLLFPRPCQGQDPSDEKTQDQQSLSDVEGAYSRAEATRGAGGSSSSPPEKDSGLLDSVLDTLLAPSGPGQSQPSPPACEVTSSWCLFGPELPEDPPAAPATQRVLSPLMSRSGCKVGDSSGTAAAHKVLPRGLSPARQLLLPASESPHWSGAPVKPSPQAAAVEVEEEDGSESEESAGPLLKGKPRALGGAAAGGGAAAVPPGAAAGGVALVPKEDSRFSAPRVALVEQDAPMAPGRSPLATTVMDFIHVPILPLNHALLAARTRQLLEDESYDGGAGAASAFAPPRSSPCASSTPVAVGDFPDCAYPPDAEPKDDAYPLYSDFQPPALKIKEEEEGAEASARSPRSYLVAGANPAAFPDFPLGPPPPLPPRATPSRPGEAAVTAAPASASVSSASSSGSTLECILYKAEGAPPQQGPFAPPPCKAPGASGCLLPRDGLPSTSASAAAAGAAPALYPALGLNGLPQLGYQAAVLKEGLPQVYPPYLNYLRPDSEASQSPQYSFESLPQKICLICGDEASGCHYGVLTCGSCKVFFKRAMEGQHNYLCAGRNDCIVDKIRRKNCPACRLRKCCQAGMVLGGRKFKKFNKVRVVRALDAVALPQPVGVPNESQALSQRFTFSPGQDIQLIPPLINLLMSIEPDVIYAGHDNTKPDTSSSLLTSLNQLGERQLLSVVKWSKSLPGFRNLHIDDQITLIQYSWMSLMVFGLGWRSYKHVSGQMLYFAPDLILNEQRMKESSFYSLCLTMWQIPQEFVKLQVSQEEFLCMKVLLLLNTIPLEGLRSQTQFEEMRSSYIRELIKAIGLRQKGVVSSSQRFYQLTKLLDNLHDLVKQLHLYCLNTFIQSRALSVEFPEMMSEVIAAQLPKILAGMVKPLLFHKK

For test [4], the target named is Prostaglandin G/H synthase 1 (Homo sapiens, UniProt P23219). Type of test: functional.
The target of test [5] is Sodium-dependent noradrenaline transporter (Homo sapiens, UniProt P23975).

We go through eleven molecules from ChEMBL document CHEMBL5291721, “A preclinical secondary pharmacology resource illuminates target-adverse drug reaction associations of marketed drugs” (Nat Commun, 2023).
Further: assay procedure not described here.

Sequence of 3',5'-cyclic-AMP phosphodiesterase 4A (P27815 whole entry): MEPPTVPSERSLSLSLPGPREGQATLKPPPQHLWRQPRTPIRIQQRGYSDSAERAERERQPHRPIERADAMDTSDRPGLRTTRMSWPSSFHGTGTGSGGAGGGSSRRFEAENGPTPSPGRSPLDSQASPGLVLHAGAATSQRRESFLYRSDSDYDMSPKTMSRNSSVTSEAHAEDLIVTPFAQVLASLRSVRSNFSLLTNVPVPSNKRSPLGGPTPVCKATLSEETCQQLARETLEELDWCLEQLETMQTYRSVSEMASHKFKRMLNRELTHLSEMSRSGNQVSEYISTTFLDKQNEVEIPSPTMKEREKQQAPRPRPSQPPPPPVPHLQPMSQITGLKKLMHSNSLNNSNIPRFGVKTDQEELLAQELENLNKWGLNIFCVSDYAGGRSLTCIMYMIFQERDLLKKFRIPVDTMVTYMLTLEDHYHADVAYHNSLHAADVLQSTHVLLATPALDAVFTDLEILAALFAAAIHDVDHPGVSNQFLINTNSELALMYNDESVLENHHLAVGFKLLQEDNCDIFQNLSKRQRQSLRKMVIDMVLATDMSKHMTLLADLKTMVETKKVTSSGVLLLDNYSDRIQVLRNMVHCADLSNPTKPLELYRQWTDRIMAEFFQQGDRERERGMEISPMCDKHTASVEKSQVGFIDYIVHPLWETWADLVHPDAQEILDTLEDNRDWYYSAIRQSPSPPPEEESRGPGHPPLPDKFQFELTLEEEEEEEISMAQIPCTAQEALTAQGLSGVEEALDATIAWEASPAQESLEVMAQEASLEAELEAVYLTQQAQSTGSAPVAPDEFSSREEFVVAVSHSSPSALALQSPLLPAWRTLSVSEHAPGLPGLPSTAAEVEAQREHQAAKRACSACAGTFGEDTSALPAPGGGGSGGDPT
Sequence of Prostaglandin G/H synthase 1 (P23219 whole entry): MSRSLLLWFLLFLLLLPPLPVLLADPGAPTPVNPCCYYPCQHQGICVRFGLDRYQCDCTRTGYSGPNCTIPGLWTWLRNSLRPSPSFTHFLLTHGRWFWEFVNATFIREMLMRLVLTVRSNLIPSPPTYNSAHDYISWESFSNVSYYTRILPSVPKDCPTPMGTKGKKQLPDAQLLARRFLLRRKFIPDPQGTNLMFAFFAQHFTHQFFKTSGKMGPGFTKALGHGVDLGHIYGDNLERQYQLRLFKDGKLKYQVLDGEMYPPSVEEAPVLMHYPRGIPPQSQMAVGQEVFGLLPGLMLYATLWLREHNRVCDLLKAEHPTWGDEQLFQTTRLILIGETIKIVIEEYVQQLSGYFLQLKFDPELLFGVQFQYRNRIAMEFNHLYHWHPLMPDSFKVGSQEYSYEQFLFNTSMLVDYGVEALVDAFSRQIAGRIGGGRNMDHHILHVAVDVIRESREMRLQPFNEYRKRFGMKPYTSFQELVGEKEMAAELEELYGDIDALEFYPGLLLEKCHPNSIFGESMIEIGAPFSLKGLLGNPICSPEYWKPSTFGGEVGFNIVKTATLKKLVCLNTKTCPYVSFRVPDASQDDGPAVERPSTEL
Sequence of Sodium-dependent noradrenaline transporter (P23975 whole entry): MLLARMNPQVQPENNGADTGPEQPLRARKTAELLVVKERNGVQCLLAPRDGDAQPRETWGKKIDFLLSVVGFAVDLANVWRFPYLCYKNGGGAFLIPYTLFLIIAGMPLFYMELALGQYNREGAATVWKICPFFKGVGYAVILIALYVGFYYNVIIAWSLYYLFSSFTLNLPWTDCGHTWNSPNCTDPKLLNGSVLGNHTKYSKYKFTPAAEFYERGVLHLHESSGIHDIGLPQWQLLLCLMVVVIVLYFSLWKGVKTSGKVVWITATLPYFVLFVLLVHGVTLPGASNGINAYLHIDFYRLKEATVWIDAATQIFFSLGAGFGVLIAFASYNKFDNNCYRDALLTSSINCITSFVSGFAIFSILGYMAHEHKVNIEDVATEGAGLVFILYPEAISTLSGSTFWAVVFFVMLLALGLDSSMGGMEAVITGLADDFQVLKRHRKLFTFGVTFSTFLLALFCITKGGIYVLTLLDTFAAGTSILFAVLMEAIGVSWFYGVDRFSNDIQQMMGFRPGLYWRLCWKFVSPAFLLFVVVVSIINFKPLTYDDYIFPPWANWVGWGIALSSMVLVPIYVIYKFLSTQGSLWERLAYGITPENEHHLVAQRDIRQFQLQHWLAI

Consider `O=P(O)(O)C(Cl)(Cl)P(=O)(O)O` [CLODRONIC ACID], for which the AC50 (in test [1]; at Estrogen receptor; in test [2]; in test [3]; on Progesterone receptor; in test [4]) was > 30 µM throughout. In addition, in test [5], the half-maximal activity concentration (AC50) is > 30 µM.
`Nc1ccncc1` [DALFAMPRIDINE]: the AC50 (in test [1]; on Estrogen receptor; in test [2]; in test [3]; on Progesterone receptor; in test [4]) was > 30 µM throughout. For the same molecule, the AC50 in test [5] is > 30 µM.
As to `C[C@H]1O[C@@H](O[C@H]2[C@@H](O)C[C@H](O[C@H]3[C@@H](O)C[C@H](O[C@H]4CC[C@@]5(C)[C@H](CC[C@@H]6[C@@H]5CC[C@]5(C)[C@@H](C7=CC(=O)OC7)CC[C@]65O)C4)O[C@@H]3C)O[C@@H]2C)C[C@H](O)[C@@H]1O` [DIGITOXIN], the AC50 (in test [1]; on Estrogen receptor; in test [2]; in test [3]; at Progesterone receptor; in test [4]) was > 30 µM each time. The AC50 in test [5] is > 30 µM.
In the case of `OC(CCCN1CCCCC1)(c1ccccc1)c1ccccc1` [DIPHENIDOL], the AC50 (in test [1]; at Estrogen receptor; in test [2]; in test [3]; on Progesterone receptor; in test [4]) was > 30 µM each time. Further, the concentration at half-maximal activity (AC50) in test [5] was > 30 µM.
On to `O=C(CCCN1CC=C(n2c(=O)[nH]c3ccccc32)CC1)c1ccc(F)cc1` [DROPERIDOL], for which the half-maximal activity concentration (AC50) (in test [1]; on Estrogen receptor; in test [2]; in test [3]; on Progesterone receptor; in test [4]) was > 30 µM each time. The AC50 in test [5] is > 30 µM.
For `CCn1cc(C(=O)O)c(=O)c2cc(F)c(N3CCNCC3)nc21` [ENOXACIN], the AC50 (in test [1]; at Estrogen receptor; in test [2]; in test [3]; at Progesterone receptor; in test [4]) was > 30 µM in each case. Besides, in test [5], the half-maximal activity concentration (AC50) was > 30 µM.
As to `C[C@@H](O)[C@H]1C(=O)N2C(C(=O)O)=C([C@H]3CCCO3)S[C@H]12` [FAROPENEM], the AC50 is > 30 µM in test [1]; > 30 µM at Estrogen receptor; > 30 µM in test [2]; > 30 µM in test [3]; > 30 µM at Progesterone receptor; 14.7 µM in test [4]. In addition, in test [5], the AC50 is > 30 µM.
Regarding `CCOC(=O)c1ccc(OC(=O)CCCCCNC(=N)N)cc1` [GABEXATE], the AC50 (in test [1]; on Estrogen receptor; in test [2]; in test [3]; on Progesterone receptor; in test [4]) was > 30 µM throughout. In addition, in test [5], half-maximal activity (AC50) was put at 9.03 µM.
Consider `COCCOc1cnc(NS(=O)(=O)c2ccccc2)nc1` [GLYMIDINE], for which the concentration at half-maximal activity (AC50) (in test [1]; at Estrogen receptor; in test [2]; in test [3]; at Progesterone receptor; in test [4]) was > 30 µM in each case. Besides, the half-maximal activity concentration (AC50) in test [5] was > 30 µM.
For `CCC(=O)O[C@]1(C(=O)COC(C)=O)CC[C@H]2[C@@H]3CCC4=CC(=O)CC[C@]4(C)[C@H]3[C@@H](O)C[C@@]21C` [HYDROCORTISONE ACEPONATE], the AC50 in test [1] is > 30 µM; at Estrogen receptor, > 30 µM; in test [2], > 30 µM; in test [3], > 30 µM; on Progesterone receptor it was 0.326 µM; in test [4], > 30 µM. In test [5], the AC50 was > 30 µM.
As for `O=[N+]([O-])O[C@H]1CO[C@H]2[C@@H]1OC[C@H]2O[N+](=O)[O-]` [ISOSORBIDE DINITRATE], the AC50 (in test [1]; at Estrogen receptor; in test [2]; in test [3]; at Progesterone receptor; in test [4]) was > 30 µM throughout. For the same molecule, the half-maximal activity concentration (AC50) in test [5] was > 30 µM.
